The values below come from US6994986B2, “In vitro synthesis of polypeptides by optimizing amino acid metabolism” (The Board of Trustees of the Leland Stanford University, priority 1999, dated 2006).

Test [1] concerns E. coli S30 extract. As to the kind of experiment: Cell-free protein synthesis, PEP system (phosphoenol pyruvate / pyruvate kinase ATP regeneration). Format: biochemical, Escherichia coli. As to the method: (§1) Throughout the examples to follow, two standard methods were used for cell-free protein synthesis. The first uses phosphoenol pyruvate (PEP) and pyruvate kinase to regenerate ATP from ADP. This is termed the PEP system. The second uses pyruvate and pyruvate oxidase to regenerate ATP. This is called the pyruvate system.
57 mM Hepes-KOH (pH 8.2), 1.2 mM ATP, 0.85 mM each of GTP, UTP and CTP, 1 mM DTT, 0.64 mM cAMP, 200 mM potassium glutamate, 80 mM NH4(OAc), 15 mM Mg(OAc)2, […] folinic acid, 6.7 μg/ml plasmid, 33 μg/ml T7 RNA polymerase, 500 μM each of 20 unlabeled amino acids, [^3H] leucine (0.27 GBq/mmol), 2% PEG 8000, 20 mM PEP (phosphoenol pyruvate), and 0.24 volumes of S30 extract. […]
(§2) Reactions were conducted for given time periods in a water bath set at 37° C. The amount of synthesized protein was estimated from the measured cold TCA-insoluble radioactivities as described (Kim et al., supra.) Radioactivities of samples were measured in a liquid scintillation counter (Beckman). […]
(§3) The amount of synthesized protein was estimated from the measured TCA-insoluble radioactivities as described earlier (Kim et al., 1996a, supra.) Radioactivities of samples were measured in a liquid scintillation counter (Beckman LS3801). […]

In test [2] the target is acetate kinase (Escherichia coli, UniProt P0A6A3). As to conditions: read-out: Km value of acetate kinase for acetyl phosphate; cited from earlier work.
Test [3] has as its system E. coli S30 extract. As to the kind of experiment: Cell-free protein synthesis, pyruvate system (pyruvate / pyruvate oxidase ATP regeneration). The test is classed as biochemical, Escherichia coli. As to the method:
as §1
T7 RNA polymerase was prepared from the culture of E. coli strain BL21 (pAR1219) according to the slightly modified procedures of Davanloo et al. (1984) Proc. Natl. Acad. Sci. U.S.A. 81: 2035–2039. S30 extract was prepared from wild type E. coli K12 (strain A19) according to the procedures reported earlier (Kim et al., supra.). The standard reaction mixture for the pyruvate system is nearly identical. […]
as §2, §3

The target of test [4] is T1, phosphoenol pyruvate synthetase (pps) (Escherichia coli, UniProt P23538).
T1 construct: endogenous in cells; host or cells: E. coli K12 strain A19, S30 cell extract
Put plainly: Aspartic acid/asparagine formation in the cell-free reaction mixture. The test is classed as biochemical, E. coli. As to conditions: 2.7 mM oxalic acid; FIG. 6. As to the method:
(§4) The observations indicated in the previous examples prompted the measurement of individual amino acid concentrations during the course of a protein synthesis reaction. In this case, a pyruvate-driven reaction of 900 μl was started. Samples of 100 μl were taken each hour, diluted 1:1 with cold water and deproteinized by adding 200 μl of cold 10% TCA (trichloroacetic acid) solution. After centrifugation the supernatant was analyzed using a Beckman 1600 amino acid analyzer. […] This is a potentially serious source of reaction inefficiency. In the second case, the depletion of the three amino acids is most likely the reason that prolonging the reaction required amino acids addition.
The conversion of pyruvate to PEP is catalyzed by the enzyme, phosphoenol pyruvate synthetase (pps). Oxalic acid has been reported to inhibit pps. To test to see if the pps reaction is indeed responsible for aspartic acid and asparagine synthesis and to test if these reactions are reducing the protein yield, 2.7 mM oxalic acid was added to both the pyruvate system and the PEP system. […] With the pyruvate system, less pyruvate and ATP are being lost to amino acid formation. In the case with PEP as the energy source, pyruvate is the direct product after PEP transfers its phosphate to ADP. That pyruvate will then be converted back into PEP by pps, but at the cost of two ATP's for each new PEP molecule. […]

Test [5] concerns the target T2, arginine decarboxylase (Escherichia coli, UniProt P21170).
T2 construct: endogenous in cells; host or cells: E. coli K12 strain A19, S30 cell extract
Put plainly: Arginine depletion in the cell-free reaction mixture (amino acid analysis). Format: biochemical, E. coli. Also on record: dose or concentration left out as unconfirmed. As to conditions: spermidine; FIG. 5. As to the method:
as §4
The data shown in FIGS. 3 and 4 indicate that the degradation of three amino acids, arginine, cysteine and tryptophan is seriously limiting the efficiency and duration of the protein synthesis reaction. […] In the case of arginine, one possible cause is the action of arginine decarboxylase. This is the first enzyme in the pathway for the conversion of arginine to putrescine and spermidine, cationic molecules important for normal bacterial physiology. Putrescine and spermidine can also be produced from ornithine, but arginine is preferred when it is available. (See FIG. 10) Arginine decarboxylase is known to be feedback inhibited by spermidine. […]

T2 sequence (P21170 whole entry): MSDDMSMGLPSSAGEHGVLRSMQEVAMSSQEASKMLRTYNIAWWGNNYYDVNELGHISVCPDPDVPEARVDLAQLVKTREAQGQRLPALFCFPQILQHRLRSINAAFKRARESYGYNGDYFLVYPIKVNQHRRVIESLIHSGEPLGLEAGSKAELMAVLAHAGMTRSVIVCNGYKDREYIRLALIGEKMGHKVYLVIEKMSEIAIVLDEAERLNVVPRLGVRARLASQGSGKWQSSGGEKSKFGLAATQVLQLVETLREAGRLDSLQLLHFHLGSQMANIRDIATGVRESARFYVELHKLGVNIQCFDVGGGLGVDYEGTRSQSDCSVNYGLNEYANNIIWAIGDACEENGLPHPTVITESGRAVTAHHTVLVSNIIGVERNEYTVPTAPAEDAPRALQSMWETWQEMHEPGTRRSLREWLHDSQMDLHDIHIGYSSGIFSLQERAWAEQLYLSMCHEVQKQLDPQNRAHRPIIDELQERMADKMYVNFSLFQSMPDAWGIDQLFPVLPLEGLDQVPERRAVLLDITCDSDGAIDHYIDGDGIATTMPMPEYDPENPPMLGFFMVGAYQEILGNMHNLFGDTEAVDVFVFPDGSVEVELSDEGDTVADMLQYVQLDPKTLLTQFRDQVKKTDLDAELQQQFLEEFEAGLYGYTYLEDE
T1 sequence (P23538 whole entry): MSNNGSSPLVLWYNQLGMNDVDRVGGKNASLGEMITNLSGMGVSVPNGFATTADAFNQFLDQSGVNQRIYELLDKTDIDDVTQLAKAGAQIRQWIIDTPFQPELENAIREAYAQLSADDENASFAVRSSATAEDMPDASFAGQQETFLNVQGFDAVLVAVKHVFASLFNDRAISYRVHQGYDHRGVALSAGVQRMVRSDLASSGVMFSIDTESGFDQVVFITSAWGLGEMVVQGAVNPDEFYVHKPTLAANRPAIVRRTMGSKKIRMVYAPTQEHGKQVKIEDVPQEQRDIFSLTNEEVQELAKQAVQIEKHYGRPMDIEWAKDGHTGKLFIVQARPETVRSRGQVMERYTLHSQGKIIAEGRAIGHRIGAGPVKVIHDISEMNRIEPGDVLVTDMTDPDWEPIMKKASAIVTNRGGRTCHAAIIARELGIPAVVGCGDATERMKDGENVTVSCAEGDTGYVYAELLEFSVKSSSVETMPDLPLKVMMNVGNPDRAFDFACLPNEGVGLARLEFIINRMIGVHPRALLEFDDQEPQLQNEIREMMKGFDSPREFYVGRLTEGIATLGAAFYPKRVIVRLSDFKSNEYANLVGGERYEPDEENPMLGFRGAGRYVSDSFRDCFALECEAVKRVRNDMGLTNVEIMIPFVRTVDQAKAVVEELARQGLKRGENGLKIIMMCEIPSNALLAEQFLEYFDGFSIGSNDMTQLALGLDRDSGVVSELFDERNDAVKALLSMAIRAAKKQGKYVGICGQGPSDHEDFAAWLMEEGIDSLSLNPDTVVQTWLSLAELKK
acetate kinase, sequence (P0A6A3 whole entry): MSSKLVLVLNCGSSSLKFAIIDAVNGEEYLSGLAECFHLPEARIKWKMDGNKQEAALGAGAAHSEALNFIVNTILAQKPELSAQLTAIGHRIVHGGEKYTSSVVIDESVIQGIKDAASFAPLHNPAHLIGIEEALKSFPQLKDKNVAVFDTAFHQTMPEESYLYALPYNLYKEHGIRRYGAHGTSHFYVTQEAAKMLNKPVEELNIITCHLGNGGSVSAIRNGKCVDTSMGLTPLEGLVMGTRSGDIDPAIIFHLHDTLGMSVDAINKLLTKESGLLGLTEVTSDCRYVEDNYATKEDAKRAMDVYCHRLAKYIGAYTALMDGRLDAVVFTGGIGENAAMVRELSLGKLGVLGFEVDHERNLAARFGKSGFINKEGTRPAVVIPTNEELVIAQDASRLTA

Consider `CC(=O)OP(=O)(O)O` [acetyl phosphate], for which the “support of protein synthesis as energy source” value in test [1] (energy source in place of PEP) was “as efficiently as PEP”. Moreover, the Km – broadly, the substrate concentration at which the rate is half of its maximum – in test [2] is 200 µM.
On to catalase, for which the “effect on rate or duration of protein synthesis” value in test [3] (exogenous catalase added to the reaction mixture) is “did not affect either the rate or duration of protein synthesis”.
On to `O=C(O)C(=O)O` [oxalic acid], for which the protein yield entry in test [1] (2.7 mM oxalic acid, PEP system, FIG. 8) is “increases the protein yield”; in test [3] (2.7 mM oxalic acid, pyruvate system, FIG. 7), “increases the protein yield”. The “formation of aspartic acid and asparagine” value in test [4] is on record as “reduced”.
As to `NCCCCNCCCN` [spermidine], the arginine depletion entry in test [5] is given as “significantly slow arginine depletion”.
